# Results from ChEMBL document CHEMBL3351572, “Almiramide D, cytotoxic peptide from the marine cyanobacterium Oscillatoria nigroviridis” (Bioorg Med Chem, 2014).
# Where a SMILES comes first, the peptide text is derived from it. [ ]: non-standard residue; d: D form. The star is where a group is joined. Oct7ynoyl(2R-Me) = C#CCCCC[C@@H](C)C(=O)*; NMeF = CN[C@@H](Cc1ccccc1)C(=O)O; NMeI = CC[C@H](C)[C@H](NC)C(=O)O; NMeV = CN[C@H](C(=O)O)C(C)C; NMeA = CN[C@@H](C)C(=O)O
# Legend:
# [1] = Cytotoxicity against human PC3 cells after 48 hrs by alamar blue assay; format: functional, cell-based; settings: PC-3, 48 h
# A549 = experiment: Cytotoxicity against human A549 cells after 48 hrs by alamar blue assay; format: functional, cell-based; settings: A549, 48 h
# HeLa = experiment: Cytotoxicity against human HeLa cells after 48 hrs by alamar blue assay; format: functional, cell-based
# HT-29 = experiment: Cytotoxicity against human HT-29 cells after 48 hrs by alamar blue assay; format: functional, cell-based; settings: HT-29, 48 h
# MDA-MB-231 = experiment: Cytotoxicity against human MDA-MB-231 cells after 48 hrs by alamar blue assay; format: functional, cell-based; settings: MDA-MB-231, 48 h
# Artemia = experiment: Cytotoxicity against brine shrimps larvae assessed as mortality after 48 hrs; format: organism-based; settings: in vivo
Structure (SMILES),IC50 [1],IC50 (A549),IC50 (HeLa),IC50 (HT-29),IC50 (MDA-MB-231),Activity (Artemia)
C#CCCCC[C@@H](C)C(=O)N(C)[C@H](C(=O)N(C)[C@H](C(=O)N[C@H](C(=O)N(C)[C@H](C(=O)N[C@@H](C)C(N)=O)[C@@H](C)CC)[C@@H](C)CC)C(C)C)C(C)C ({Oct7ynoyl(2R-Me)}-[NMeV][NMeV]I[NMeI]A-NH2),62 µM,59 µM,17 µM,91 µM,821 µM,–
C#CCCCC[C@@H](C)C(=O)N(C)[C@H](C(=O)N(C)[C@H](C(=O)N[C@H](C(=O)N(C)[C@@H](C)C(=O)N(C)[C@@H](Cc1ccccc1)C(N)=O)C(C)C)C(C)C)C(C)C [ALMIRAMIDE B] ({Oct7ynoyl(2R-Me)}-[NMeV][NMeV]V[NMeA][NMeF]-NH2),107 µM,76 µM,53 µM,100 µM,13 µM,–
COc1cccc2c1C(=O)c1c(O)c3c(c(O)c1C2=O)C[C@@](O)(C(=O)CO)C[C@@H]3O[C@H]1C[C@H](N)[C@H](O)[C@H](C)O1 [DOXORUBICIN],17 µM,14 µM,–,–,–,Non-toxic
